The values below come from patent publication US20040186166A1, “Cannabinoid analogs as peroxisome proliferator activated nuclear receptor gamma activators” (priority 2002, published 2004).

For experiment [1], the system named is PPARγ2 and aP2 gene expression in 3T3 L1 cells. Put plainly: RT-PCR of adipocyte-specific genes. The conditions noted are these: versus vehicle control. Format: cell-based. The method, then: The adipocyte differentiation assay was performed as described by Mukherjee et. al. (Mol Endocrinol 14: 1425-33, 2000). The 3T3 L1 cells (American Type Culture Collection) were cultured in DMEM media supplemented with 10% calf serum. Two days after reaching confluence, cells were treated with AJA, GW347845, or vehicle (0.1% DMSO) in the presence of 10 μg/ml insulin every other day. After 10 days of treatment with AJA or 7 days with GW347845 at confluence, cells were fixed and stained with Oil Red O (Sigma). For RT-PCR, total cellular RNAs were isolated by TRIzol (Gibco). Reverse transcriptase polymerase chain reaction (RT-PCR) was performed using the superscript first-strand synthesis kit (Invitrogen). After first-strand cDNA was synthesized by use of oligo (dT), cDNA was amplified by PCR. The forward primers and reverse primers used in the amplifications were 5′-GCTGTTATGGGTGAAACTCTGGGAG-3′(SEQ ID NO: 1), and 5′-CTTCATGAGGCCTGTTGTAGAGC-3′ (SEQ ID NO:2), for PPARγ2, 5′-GAGCAAATGGAGTTCCCAGATG-3′ (SEQ ID NO: 3), and 5′-GCAAACAATGGGAATAGTTCACAGTAG-3′ (SEQ ID NO: 4), for aP2, and 5′-GACCACAGTCCATGCCATCAC-3′(SEQ ID NO: 5), and 5′-CATACCAGGAAATGAGCTGAC-3′ (SEQ ID NO: 6), for GAPDH. PCR amplifications were performed in 50 μL volume with Taq DNA polymerase for 30 cycles.
To confirm that AJA and GW347845 induce 3T3 L1 cell differentiation into adipocytes, the expression levels of the adipocyte-specific genes PPARγ2 and aP2 were measured by RT-PCR. Total RNA was isolated after AJA or GW347845 treatment, and compared with vehicle control. Reverse transcription was conducted and the relative amounts of PPARγ2 and aP2 transcripts were measured by PCR reactions using primer sets specific to each gene. PCR products were analyzed on 1% agarose gel and stained with Ethidium Bromide. […] As a control for the induction specificity and the PCR amplification reaction, the expression levels of GADPH were measured in all samples, and found not affected by any treatment.

For a further experiment, the target named is CB2 (Homo sapiens, UniProt P34972). The conditions noted are these: Recht et al. 2001; cited from earlier work.
CB2, sequence (P34972 whole entry, species assumed): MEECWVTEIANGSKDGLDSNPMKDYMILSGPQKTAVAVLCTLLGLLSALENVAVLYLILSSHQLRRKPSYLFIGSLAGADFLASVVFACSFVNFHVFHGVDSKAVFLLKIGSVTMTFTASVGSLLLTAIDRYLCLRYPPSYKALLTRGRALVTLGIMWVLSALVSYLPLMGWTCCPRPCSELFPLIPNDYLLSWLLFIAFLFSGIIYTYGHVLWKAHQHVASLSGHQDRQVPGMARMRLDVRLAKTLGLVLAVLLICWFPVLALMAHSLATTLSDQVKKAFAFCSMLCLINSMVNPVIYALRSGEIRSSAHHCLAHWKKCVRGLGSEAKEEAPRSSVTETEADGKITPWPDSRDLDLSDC
Another experiment has as its target T1, PPARγ ΔAF2 mutant (Mus musculus, UniProt P37238).
T1 construct: introduce a stop codon and a NheI restriction site after amino acid 489; expressed in transfected cells; host or cells: HEK293
T1 sequence (P37238 1-459 isoform P37238-2): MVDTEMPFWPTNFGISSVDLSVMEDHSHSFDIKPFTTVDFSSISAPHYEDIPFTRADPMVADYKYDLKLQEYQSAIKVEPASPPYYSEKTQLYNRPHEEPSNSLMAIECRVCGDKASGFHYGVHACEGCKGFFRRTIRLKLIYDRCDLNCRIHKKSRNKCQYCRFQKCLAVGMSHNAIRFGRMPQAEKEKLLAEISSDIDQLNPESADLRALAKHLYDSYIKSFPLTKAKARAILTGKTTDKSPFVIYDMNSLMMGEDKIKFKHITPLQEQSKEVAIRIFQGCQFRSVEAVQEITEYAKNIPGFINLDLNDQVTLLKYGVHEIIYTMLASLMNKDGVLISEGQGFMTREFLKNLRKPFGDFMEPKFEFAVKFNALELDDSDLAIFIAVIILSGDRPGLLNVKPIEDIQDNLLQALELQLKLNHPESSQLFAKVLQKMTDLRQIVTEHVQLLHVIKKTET
Put plainly: PPRE-Luc reporter assay, AF-2 helix-truncated PPARγ. Format: cell-based. From the text:
The-pCMX-Gal4-mPPARγ1 was constructed by fusing the mPPARγ1 coding sequence to the yeast GAL4 DNA binding domain (amino acid 1-147) in the pCMX vector. The AF-2 helix-truncated mutant of mPPARγ1 (PPARγ ΔAF2) was generated by PCR amplification-to introduce a stop codon and a NheI restriction site after amino acid 489, and then-subcloned into the pCMX vector. The PPRE-TK-LUC, MH100-TK-LUC-and DR1-TK-LUC reporters have been described previously (Forman et al., Cell 83:803-812, 1995; Umesono et al., Cell 65:1255-1266, 1991).
For PPARγ activation assay, HEK293 cells were plated in 12-well cell culture plates and maintained in Dulbecco's modified Eagle's medium (DMEM) supplemented with 10% fetal bovine serum (FBS) at 37° C. under 5% CO2. Cells were changed to phenol red-free DMEM supplemented with 10% charcoal-stripped fetal bovine serum 3 hours before transfection by a standard calcium-phosphate precipitation method. Twelve hours after transfection, the cells were washed with phosphate-buffered saline (PBS) and fed again with fresh medium containing the indicated concentrations of compounds. After 36 hours, cells were harvested for β-galactosidase and luciferase activities as described previously (Li et al., Proc Natl Acad Sci USA 94:8479-84, 1997). The average normalized luciferase activity was determined via triplicate experiments. […]

For `CCCCCCC(C)(C)c1cc(O)c2c(c1)OC(C)(C)[C@@H]1CC=C(C(=O)O)C[C@@H]21` [AJA, dimethylheptyl-THC-11-oic acid], in experiment [1], the PPARγ2 gene expression result is “enhanced PPARγ2 and aP2 gene expression significantly”; the aP2 gene expression entry is “enhanced PPARγ2 and aP2 gene expression significantly”. Also, the “affinity to CB2” value at CB2 is given as “modest affinity”. Moreover, on PPARγ ΔAF2 mutant, the “activation of PPRE-Luc reporter through PPARγ ΔAF2 mutant” value was “failed to activate expression of the reporter gene”.
